In PubChem BioAssay AID1845228:

Conditions: pampa; 60.0 min; 50.0 µM

| Compound | Papp [×10⁻⁶ cm/s] |
| --- | --- |
| N=c1c2c(-c3ccccc3)c(-c3ccccc3)n(Cc3ccccc3)c2ncn1CCCCO | 259 |
| NCCCNCCCCNC(=O)C(O)NC(=O)CCCCCCN=C(N)N (configuration not stated) | 38 |
| Cc1onc(-c2ccccc2)c1C(=O)N[C@@H]1C(=O)N2[C@@H]1SC(C)(C)[C@@H]2C(=O)O | 8 |
| Cn1nnnc1Sc1ncnc2scc(-c3ccsc3)c12 | 173 |
| Cc1ccccc1N(C)C1CN([S+](=O)([O-])c2cccc(C(F)(F)F)c2)C1 | > 300 |
| CC1(C)CC(=O)c2c(C(F)(F)F)nn(-c3ccc(C(N)=O)c(NC4CCC(O)CC4)c3)c2C1 (configuration not stated) | 21.5 |
| O=C(O)c1cc2ccccc2c(Cc2c(O)c(C(=O)O)cc3ccccc23)c1O | 3 |
| CN(C)CCn1nnnc1SCC1=C(C(=O)O)N2C(=O)[C@@H](NC(=O)Cc3csc(N)n3)[C@H]2SC1 | 6 |
| COc1cc(/C=C/C(=O)NCCn2c(C(F)(F)F)cc3ccccc32)cc(OC)c1OC | > 300 |
| CC#CCC(C)[C@H](O)/C=C/[C@@H]1[C@H]2c3cccc(CCCC(=O)O)c3O[C@H]2C[C@H]1O (some centres not stated) | < 1 |
| OC[C@H]1O[C@@H](n2cnc3c(NCc4ccc(O)cc4)ncnc32)[C@H](O)[C@@H]1O | < 1 |
| CC(C)C[C@H](CO)Nc1nc(S[C@@H](C)c2ccccc2)nc2nc(N)sc12 | 244 |
| N=c1c2c(-c3ccccc3)cn(Cc3ccccc3)c2ncn1CCNCCO | 3 |
| CC(C)C(=O)OCc1cccc(OC(=O)[C@@H]2N3C(=O)[C@@H](NC(=O)Cc4ccccc4)[C@H]3SC2(C)C)c1 | 84 |
| CC[C@@H](c1ccc(F)c(F)c1)n1c(C(=O)OC)c(-c2ccno2)[nH]c1=S | 195 |
| COc1cccc(-c2csc3ncnc(Sc4nnnn4C)c23)c1 | 219 |
| O=c1c2c(c1=O)N(CCP(=O)(O)O)CCCN2 | < 1 |
| COc1ccc(Cn2c(-c3ccccc3)c(-c3ccccc3)c3c(=N)n(CC4CCCO4)cnc32)cc1 (configuration not stated) | 297 |
| COC(=O)C[C@@H](C(=O)OC)n1cnc2c(c(-c3ccccc3)cn2Cc2ccccc2)c1=N | 26 |
| CCNC(=O)c1cc2c(-c3cc(OCCN4CCCC4)c(Cl)cc3Cl)nc(N)nc2s1 | 123 |
| Cc1ccc(-c2csc3ncnc(Sc4nnnn4C)c23)cc1 | > 300 |
| Cc1nn(C)c(C)c1-c1cccc2c1CCC(N(C)C)C2 (configuration not stated) | 13.4 |
| O=C1[C@H](CC[C@H](O)c2ccc(F)cc2)[C@@H](c2ccc(O)cc2)N1c1ccc(F)cc1 | < 1 |
| CC(C)N(C[C@H]1O[C@@H](n2cnc3c(N)ncnc32)[C@H](O)[C@@H]1O)C1CC(CCc2nc3ccc(C(C)(C)C)cc3[nH]2)C1 (some centres not stated) | < 1 |
| [O-][n+]1cccc(/C(Cl)=N/OC[C@@H](O)CN2CCCCC2)c1 | 2 |

| Compound | Papp [×10⁻⁶ cm/s] |
| --- | --- |
| CCO[C@@H]1OC(=O)C[C@@H]1NC(=O)[C@@H]1CCCN1C(=O)[C@@H](NC(=O)c1ccc(N)c(Cl)c1)C(C)(C)C | 4 |
| Cc1nc(C2CCCCC2)c(-c2ccc(S(N)(=O)=O)c(F)c2)o1 | 172 |
| CN(C)CCn1cnc2c(c(-c3ccccc3)c(-c3ccccc3)n2CCc2ccccc2)c1=N | 148 |
| NCc1ccccc1CC(=O)N[C@@H]1C(=O)N2C(C(=O)O)=C(CSc3nnnn3CC(=O)O)CS[C@H]12 | < 1 |
| CNCCCOc1cc(F)c(-c2c(Cl)nc3ncnn3c2N[C@@H](C)C(F)(F)F)c(F)c1 | 26 |
| Cn1nnnc1Sc1ncnc2scc(-c3cccc(Cl)c3)c12 | 134 |
| CCS(=O)(=O)N1CC(CC#N)(n2cc(-c3ncnc4[nH]ccc34)cn2)C1 | < 1 |
| CC1(C)SCCN(S(=O)(=O)c2ccc(Oc3ccncc3)cc2)[C@H]1C(=O)NO | 9 |
| CC(=O)NC[C@H]1CN(c2ccc(N3CCOCC3)c(F)c2)C(=O)O1 | 5 |
| CC(=O)NCCNC(=O)c1ccc(-c2ncc3cnc(-c4cccc(F)c4)cn23)cc1 | 11 |
| CO/N=C(\C(=O)N[C@@H]1C(=O)N2C(C(=O)OCOC(=O)C(C)(C)C)=C(/C=C\c3scnc3C)CS[C@H]12)c1csc(N)n1 | 11 |
| CC1NC(C(=O)O)Cc2c1[nH]c1ccccc21 (configuration not stated) | < 1 |
| N=c1c2c(-c3ccccc3)c(-c3ccccc3)n(CCc3ccccc3)c2ncn1CCCCCO | 183 |
| CCNC1(C(N)=O)CN(c2nc(C)nc3c(-c4ccc(Cl)cc4)c(-c4ccccc4Cl)nn23)C1 | 8.69 |
| CC1CN(c2cc3c(cc2F)c(=O)c(C(=O)O)cn3-c2ccc(F)cc2F)CCN1 (configuration not stated) | 5 |
| COc1ccc(Cl)cc1NC(=O)c1sc2nc3c(cc2c1N)N1CCC3CC1 | < 1 |
| N=c1c2c(-c3ccccc3)cn(Cc3ccccc3)c2ncn1Cc1ccco1 | 226 |
| NC(=O)[C@H](Cc1ccccc1)NC(=O)[C@H](Cc1ccccc1)NC(=O)[C@@H]1CCCN1C(=O)[C@@H](N)Cc1ccc(O)cc1 | < 1 |
| O=C(NCc1ccc(OC(F)(F)F)cc1)C1c2ccccc2C(=O)N1C1CCOCC1 (configuration not stated) | 42 |
| Cn1nnnc1Sc1ncnc2scc(-c3ccc(C(=O)OC(C)(C)C)cc3)c12 | 72 |
| Cc1ccc(-c2c(C(=O)CF)n(CCCO)c3ncnc(N)c23)cc1 | 18 |
| Cc1cc(=O)c(C(=O)N[C@@H](C(=O)N[C@@H]2C(=O)N3C(C(=O)O)=C(CSc4nnnn4C)CS[C@H]23)c2ccc(O)cc2)c[nH]1 | < 1 |
| Nc1nc2c(c(N3CCNCC3)n1)CCC1=C2[C@@H]2CCCC[C@@H]2O1 | 30 |
| CCN(CC)CCNc1ccc(C)c2sc3ccccc3c(=O)c12 | > 300 |
| CSCC[C@H](NC(=O)[C@H](Cc1ccccc1)NC(=O)CNC(=O)CNC(=O)[C@@H](N)Cc1ccc(O)cc1)C(=O)O | < 1 |

| Compound | Papp [×10⁻⁶ cm/s] |
| --- | --- |
| COc1ccc(-c2c(Cl)ncn2-c2ccc(S(N)(=O)=O)cc2)cc1F | 78 |
| CCOC(CCCn1cnc2c(c(-c3ccccc3)c(-c3ccccc3)n2CCc2ccccc2)c1=N)OCC | < 1 |
| C=Cc1c(C)c2cc3nc(c(CC(=O)N[C@@H](CC(=O)O)C(=O)O)c4nc(cc5[nH]c(cc1[nH]2)c(C)c5CC)C(C)=C4C(=O)O)[C@@H](CCC(=O)O)[C@@H]3C | < 1 |
| Cn1nnnc1Sc1ncnc2scc(-c3ccc(C(F)(F)F)cc3)c12 | > 300 |
| O=C(NC1CCC(O)CC1)c1ccc(-c2ncc3cnc(-c4ccccc4)cn23)cc1 (configuration not stated) | 35 |
| C[C@]12CCCN1CC1=NNC(=O)c3cc(F)cc4[nH]c2c1c34 | 22 |
| N=c1c2c(-c3ccccc3)c(-c3ccccc3)n(Cc3ccccc3)c2ncn1C1CCN(Cc2ccccc2)CC1 | 233 |
| COc1cc(Cc2cnc(N)nc2N)c(C(C)C)cc1OC | 48 |
| N=c1c2c(-c3ccccc3)cn(Cc3ccc(Br)cc3)c2ncn1CCCN1CCN(c2ccccc2)CC1 | 151 |
| Cn1nnnc1Sc1ncnc2scc(-c3ccc[nH]3)c12 | 126 |
| CCCN(CCC)CCc1cccc2c1CC(=O)N2 | 34 |
| COCCN(C)Cc1ccc2nc3sc(C(=O)N(C)C4CCCCC4)cn3c2c1 | 79 |
| N#Cc1c[nH]c2c(C(=O)N3CCN(CCc4ccc(F)cc4)CC3)cccc12 | 121 |
| O=C(O)C1CCc2cc(C3CCCCC3)c(Cl)cc21 (configuration not stated) | 61 |
| CC/C=C(\C(=O)N[C@@H]1C(=O)N2C(C(=O)OCOC(=O)C(C)(C)C)=C(COC(N)=O)CS[C@H]12)c1csc(N)n1 | < 1 |
| CN(C)CCn1cnc2c(c(-c3ccccc3)c(-c3ccccc3)n2Cc2ccccc2)c1=N | 76 |
| N=c1c2c(-c3ccccc3)c(-c3ccccc3)n(CCc3ccccc3)c2ncn1CCCO | 66 |
| Cn1cc(C2=C(c3cn(CCCSC(=N)N)c4ccccc34)C(=O)NC2=O)c2ccccc21 | < 1 |
| O=C(Nc1cccnc1)c1cccs1 | 10 |
| Nc1c2ccccc2nc2ccccc12 | 36 |
| O=C(O)[C@H]1O[C@@H](Oc2cc3oc(-c4ccc(O)cc4)cc(=O)c3c(O)c2O)[C@H](O)[C@@H](O)[C@@H]1O | < 1 |
| COCCn1cnc2c(c(-c3ccccc3)c(-c3ccccc3)n2CCc2ccccc2)c1=N | 116 |
| C[C@@]12CCCCC[C@@H](Cc3ccc(O)cc31)[C@H]2N | 74 |
| CCC(=O)N1CCN(c2ccc(-n3c(=O)ccc4cnc5ccc(-c6cnc7ccccc7c6)cc5c43)cc2C(F)(F)F)CC1 | 158 |
| COc1ccc(CCNC(=O)CCc2c(C)c3cc4c(C)coc4cc3oc2=O)cc1 | 279 |

| Compound | Papp [×10⁻⁶ cm/s] |
| --- | --- |
| CN(C)c1cc2c(cc1Sc1nc3c(N)nccc3n1CCNCC(C)(C)C)OCO2 | 20 |
| CC(=O)N1CCN(C(=O)c2ccc(-c3ncc4cnc(-c5cccc(F)c5)cn34)cc2)CC1 | < 1 |
| COc1cc(-c2nc(Cn3nnc(C(=O)Nc4cc(C)cc(C)c4)c3C)c(C)o2)cc(OC)c1OC | 17 |
| CNCCC=C1c2ccccc2CCc2ccccc21 | 253 |
| COc1ccccc1NC(=O)C1=C(C)Nc2c(C(=O)Nc3ccc(F)cc3)cnn2C1c1ccc(Cl)cc1 (configuration not stated) | < 1 |
| CC[C@@]1(O)C(=O)OCc2c1cc1n(c2=O)Cc2cc3c(CN(C)C)c(O)ccc3nc2-1 | 1.37 |
| CO/N=C(\C(=O)N[C@@H]1C(=O)N2C(C(=O)O)=C(CSc3nc(C)c(CC(=O)O)s3)CS[C@H]12)c1csc(N)n1 | < 1 |
| O=C1/C(=C\c2ccccc2)C[C@@]2(O)[C@H]3Cc4ccc(O)c5c4[C@@]2(CCN3CC2CC2)[C@@H]1O5 | 158 |
| N=c1c2c(-c3ccccc3)c(-c3ccccc3)n(Cc3ccccc3)c2ncn1CCNc1ccncc1 | 90 |
| Cn1nnnc1Sc1ncnc2scc(-c3cccc4c3sc3ccccc34)c12 | 12 |
| c1ccc(Nc2nc3c(s2)CCCc2[nH]ncc2-3)nc1 | 194 |
| CC(/C=C/[C@@H]1C[C@]1(C)c1ccc2c(c1)C(C)(C)CCC2(C)C)=C\C(=O)O | 63 |
| OCCCCC#Cc1cncc(OC[C@@H]2CCN2)c1 | < 1 |
| N=c1c2c(-c3ccccc3)cn(Cc3ccccc3)c2ncn1CCO | 113 |
| Nc1ncnc2c1ncn2[C@@H]1O[C@H](CSCC[C@H](N)C(=O)O)[C@@H](O)[C@H]1O | < 1 |
| COc1ccc(CCn2cnc3c(c(-c4ccccc4)c(-c4ccccc4)n3Cc3ccccc3)c2=N)cc1OC | 287 |
| N=c1c2c(-c3ccccc3)cn(Cc3ccccc3)c2ncn1CCCCO | 110 |
| Cn1cc(C2=C(c3coc4ccccc34)C(=O)NC2=O)c2cc(Br)ccc21 | 3 |
| O=C1C[C@@]2(C(=O)N1)C(=O)N(Cc1ccc(Br)cc1F)C(=O)c1cccn12 | 21 |
| NC(=O)c1cccc(-c2cc(Nc3ccc(OC(F)(F)F)cc3)ncn2)c1 | 94.4 |
| N=c1c2c(-c3ccccc3)c(-c3ccccc3)n(Cc3ccccc3)c2ncn1CCCCCO | 203 |
| COc1ccc(Cn2c(-c3ccccc3)c(-c3ccccc3)c3c(=N)n(CCCCCO)cnc32)cc1 | 206 |
